From US8067424B2, “Selective inhibitors for cyclin-dependent kinases” (Emory University, priority 2007, dated 2011) come the findings set out here.

Read-outs that look alike come from different tables or passages of the source.

Broadly, the remaining activity is the signal under treatment as a percentage of the control signal.

Holding throughout (format): biochemical
In one test the target is MELK (Homo sapiens, UniProt Q14680). Nature of the test: Kinase screen: MELK assay. The protocol:
(§1) Generally, the same procedure was used for all assays. Since the total assay volume was 25.5 microliters, 0.5 microliters of inhibitors at 51× assay concentration were added to the plates before any other addition.
(§2) The basic procedure was to add 0.5 microliters inhibitor/control in DMSO to plate. Fifteen microliters of enzyme/substrate/buffer mix were added and incubated for 5 min. Ten microliters MgATP at the relevant concentration were added and incubated for 30 min. The assay was stopped by adding 5 microliters of 3% orthophosphoric acid. The assay was transferred to a p81 filter plate and read in a scintillation counter of 30 sec/well. Note that this assay procedure was not followed for MKK1, which instead involved a two-step assay, and PKC alpha, which required the addition of lipid vesicles.
MELK assay: MELK (5-20 mU diluted in 50 mM Tris pH 7.5, 0.1 mM EGTA, 0.1% b-mercaptoethanol, 1 mg/ml BSA) was assayed against a substrate peptide ([…]) (SEQ ID NO: 33) in a final volume of 25.5 μl containing 50 mM Tris pH 7.5, 0.05% b-mercaptoethanol, 200 μM substrate peptide, 10 mM magnesium acetate and 0.05 mM [33P-g-ATP] (50-1000 cpm/pmole) and incubated for 30 min at room temperature. Assays were stopped by addition of 5 μl of 0.5 M (3%) orthophosphoric acid and then harvested onto P81 Unifilter plates with a wash buffer of 50 mM orthophosphoric acid.

For the next test, the target named is PAK5 (Homo sapiens, UniProt Q9P286). Nature of the test: Kinase screen: PAK5 (PAK7) assay. The method, then:
as §1, §2
PAK5 (PAK7) assay: PAK5 (PAK7)(5-20 mU diluted in 50 mM Tris pH 7.5, 0.1 mM EGTA, 0.1% b-mercaptoethanol, 1 mg/ml BSA) was assayed against a substrate peptide ([…]) (SEQ ID NO: 30) in a final volume of 25.5 μl containing 50 mM Tris pH 7.5, 0.05% b-mercaptoethanol, 300 μM substrate peptide, 10 mM magnesium acetate and 0.02 mM [33P-g-ATP] (50-1000 cpm/pmole) and incubated for 30 min at room temperature. Assays were stopped by addition of 5 μl of 0.5 M (3%) orthophosphoric acid and then harvested onto P81 Unifilter plates with a wash buffer of 50 mM orthophosphoric acid.

Another test deals with T1, PKC zeta (Homo sapiens, UniProt Q05513).
T1 sequence (Q05513 1-592): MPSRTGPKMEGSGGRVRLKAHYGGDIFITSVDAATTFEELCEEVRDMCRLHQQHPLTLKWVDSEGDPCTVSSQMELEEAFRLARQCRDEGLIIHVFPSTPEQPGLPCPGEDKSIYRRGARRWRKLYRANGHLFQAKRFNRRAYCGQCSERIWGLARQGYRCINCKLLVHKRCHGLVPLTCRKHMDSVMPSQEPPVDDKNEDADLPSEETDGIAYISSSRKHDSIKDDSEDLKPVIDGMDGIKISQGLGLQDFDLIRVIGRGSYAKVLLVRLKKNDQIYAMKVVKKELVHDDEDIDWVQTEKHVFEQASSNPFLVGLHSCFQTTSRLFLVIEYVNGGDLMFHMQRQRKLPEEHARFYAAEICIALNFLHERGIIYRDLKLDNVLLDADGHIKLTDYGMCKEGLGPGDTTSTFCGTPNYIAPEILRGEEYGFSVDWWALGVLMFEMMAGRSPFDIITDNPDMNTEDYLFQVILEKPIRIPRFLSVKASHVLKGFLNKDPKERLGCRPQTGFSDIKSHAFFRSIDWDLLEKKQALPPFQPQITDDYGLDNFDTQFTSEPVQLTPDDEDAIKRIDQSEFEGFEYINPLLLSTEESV
The test is described as follows: Kinase screen: PKC zeta assay. The protocol:
as §1, §2
PKC zeta assay: PKC zeta (5-20 mU diluted in 50 mM Tris pH 7.5, 0.1 mM EGTA, 0.1% b-mercaptoethanol, 1 mg/ml BSA, 100 μM Vanadate) was assayed against a substrate peptide ([…]) (SEQ ID NO: 34) in a final volume of 25.5 μl containing 50 mM Tris pH 7.5, 0.05% b-mercaptoethanol, 10 μM Vanadate, 300 μM substrate peptide, 10 mM magnesium acetate and 0.005 mM [33P-g-ATP] (50-1000 cpm/pmole) and incubated for 30 min at room temperature. Assays were stopped by addition of 5 μl of 0.5 M (3%) orthophosphoric acid and then harvested onto P81 Unifilter plates with a wash buffer of 50 mM orthophosphoric acid.

The target in a further test is T2, PDK1 (Homo sapiens, UniProt O15530).
T2 sequence (O15530 1-556): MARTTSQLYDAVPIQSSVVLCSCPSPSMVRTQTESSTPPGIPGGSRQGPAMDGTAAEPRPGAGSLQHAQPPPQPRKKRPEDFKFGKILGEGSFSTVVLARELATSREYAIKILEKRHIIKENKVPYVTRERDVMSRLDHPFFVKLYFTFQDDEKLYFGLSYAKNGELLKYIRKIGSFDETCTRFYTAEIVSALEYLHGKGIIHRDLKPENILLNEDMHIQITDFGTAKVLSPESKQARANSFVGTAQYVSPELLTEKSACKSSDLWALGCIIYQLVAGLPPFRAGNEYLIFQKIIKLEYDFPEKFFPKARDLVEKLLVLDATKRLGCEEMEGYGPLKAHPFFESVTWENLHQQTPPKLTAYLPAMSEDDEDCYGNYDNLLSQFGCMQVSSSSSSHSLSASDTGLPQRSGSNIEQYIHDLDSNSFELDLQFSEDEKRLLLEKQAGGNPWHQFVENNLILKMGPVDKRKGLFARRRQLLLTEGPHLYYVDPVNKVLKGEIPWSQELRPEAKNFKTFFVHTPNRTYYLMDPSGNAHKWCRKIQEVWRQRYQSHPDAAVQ
Nature of the test: Kinase screen: PDK1 assay. The protocol: as §1, §2
(50-1000 cpm/pmole) and incubated for 30 min at room temperature Assays were stopped by addition of 5 μl of 0.5 M (3%) orthophosphoric acid and then harvested onto P81 Unifilter plates with a wash buffer of 50 mM orthophosphoric acid.

Where [1] appears, read: 10 micromolar compound, read-out: mean activity remaining (as a percentage of the original activity), MELK.
[2] abbreviates: 10 micromolar compound, read-out: mean activity remaining (as a percentage of the original activity), PAK5.
[3] abbreviates: 10 micromolar compound, read-out: mean activity remaining (as a percentage of the original activity), PKC zeta.
Where [4] appears, read: 10 micromolar compound, read-out: mean activity remaining (as a percentage of the original activity), PDK1.

Chain of MELK (Q14680 whole entry, species assumed): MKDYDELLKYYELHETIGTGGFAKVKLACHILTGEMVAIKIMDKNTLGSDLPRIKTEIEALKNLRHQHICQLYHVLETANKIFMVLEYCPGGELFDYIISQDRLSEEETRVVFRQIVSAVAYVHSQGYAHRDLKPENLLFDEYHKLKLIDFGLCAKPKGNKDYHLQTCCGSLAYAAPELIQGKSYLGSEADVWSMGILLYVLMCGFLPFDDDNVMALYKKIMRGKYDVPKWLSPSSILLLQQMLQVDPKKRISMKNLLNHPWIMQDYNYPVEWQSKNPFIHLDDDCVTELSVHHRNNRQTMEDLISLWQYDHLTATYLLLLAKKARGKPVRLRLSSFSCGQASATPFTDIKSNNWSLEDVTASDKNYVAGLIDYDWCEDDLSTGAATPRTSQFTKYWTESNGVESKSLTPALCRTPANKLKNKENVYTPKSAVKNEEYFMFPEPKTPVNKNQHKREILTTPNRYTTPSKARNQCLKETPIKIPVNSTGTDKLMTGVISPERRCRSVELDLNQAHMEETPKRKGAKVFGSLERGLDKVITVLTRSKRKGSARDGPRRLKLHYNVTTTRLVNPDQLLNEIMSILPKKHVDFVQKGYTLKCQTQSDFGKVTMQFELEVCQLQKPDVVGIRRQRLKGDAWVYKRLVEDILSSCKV
Chain of PAK5 (Q9P286 whole entry): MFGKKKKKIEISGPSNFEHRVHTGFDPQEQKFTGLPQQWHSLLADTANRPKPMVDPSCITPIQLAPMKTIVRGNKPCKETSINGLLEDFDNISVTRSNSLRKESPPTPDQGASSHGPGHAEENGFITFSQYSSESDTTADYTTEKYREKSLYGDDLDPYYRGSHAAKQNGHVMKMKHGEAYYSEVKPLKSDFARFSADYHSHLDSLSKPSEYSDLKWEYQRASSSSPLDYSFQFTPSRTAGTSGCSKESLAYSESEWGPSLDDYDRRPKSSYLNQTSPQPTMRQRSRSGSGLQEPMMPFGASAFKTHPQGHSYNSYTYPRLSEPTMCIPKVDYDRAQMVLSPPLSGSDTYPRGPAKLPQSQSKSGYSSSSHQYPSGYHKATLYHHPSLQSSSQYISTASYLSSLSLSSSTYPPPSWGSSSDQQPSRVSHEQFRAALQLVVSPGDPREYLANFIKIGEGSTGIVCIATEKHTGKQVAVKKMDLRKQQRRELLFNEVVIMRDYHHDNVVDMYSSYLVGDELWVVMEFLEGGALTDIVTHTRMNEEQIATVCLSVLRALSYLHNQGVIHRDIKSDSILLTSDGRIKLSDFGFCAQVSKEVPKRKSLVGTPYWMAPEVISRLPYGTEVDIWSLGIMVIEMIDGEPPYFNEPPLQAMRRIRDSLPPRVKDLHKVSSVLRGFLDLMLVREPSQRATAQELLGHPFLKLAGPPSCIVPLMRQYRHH

`CC[C@H](CO)Nc1cc(NCc2ccccc2)n2ncc(C(C)C)c2n1` [ICEC0067]: the remaining activity at 10 µM at MELK (setting [1]) was 75%; at PAK5 (setting [2]) it was 89%; at PKC zeta (setting [3]), 76%; on PDK1 (setting [4]), 87%.
In the case of `C=C[C@H](CO)Nc1cc(NCc2ccccc2)n2ncc(C(C)C)c2n1` [ICEC0065], the remaining activity at 10 µM on MELK (setting [1]) was 90%; on PAK5 (setting [2]), 81%; on PKC zeta (setting [3]), 84%; on PDK1 (setting [4]), 78%.
For the molecule `CC(C)c1cnn2c(NCc3ccccc3)cc(N[C@@H](CO)[C@H](O)CO)nc12` [ICEC0318, (3S)-3-(7-(Benzylamino)-3-isopropylpyrazolo[1,5-a]pyrimidin-5-ylamino)butane-1,2,4-triol], the remaining activity at 10 µM is 88% on MELK (setting [1]), 65% on PAK5 (setting [2]), 64% on PKC zeta (setting [3]) and 84% at PDK1 (setting [4]).
With `CC(C)c1cnn2c(NCc3ccccc3F)cc(NCCCCCN)nc12` [ICEC-0232], the “mean activity remaining (as a percentage of the original activity), MELK” value on MELK (10 micromolar compound) amounted to 62%. Besides, the “mean activity remaining (as a percentage of the original activity), PAK5” value on PAK5 (10 micromolar compound) was 81%. Moreover, at PKC zeta (10 micromolar compound), the “mean activity remaining (as a percentage of the original activity), PKC zeta” value was found to be 65%. For the same molecule, at PDK1 (10 micromolar compound), the “mean activity remaining (as a percentage of the original activity), PDK1” value is recorded as 101%.
For the molecule `CC(C)c1cnn2c(NCc3ccccc3)cc(NCCCCCCCN)nc12` [BS-181], the remaining activity at 10 µM on MELK (MELK, 10 μM, read-out: Mean Remaining Enzyme Activity (%)) amounted to 63%; on PAK5 (PAK5, 10 μM, read-out: Mean Remaining Enzyme Activity (%)) it was 80%; on PKC zeta (PKC zeta, 10 μM, read-out: Mean Remaining Enzyme Activity (%)), 114%; at PDK1 (PDK1, 10 μM, read-out: Mean Remaining Enzyme Activity (%)), 80%.
